Measured values taken from US8193362B2 (Syngenta Crop Protection LLC, priority 2008, dated 2012).
Where a name gives a salt, the structure may show the parent alone.

Legend:
Format in all cases: in vivo
[1] = system: Spodoptera littoralis (Egyptian Cotton Leafworm); assay: Spodoptera littoralis cotton leaf disc spray test; conditions: foliar, 72 h, 200 ppm spray on cotton leaf discs, L1 larvae, mortality, feeding behavior, growth regulation 3 DAT
Description: Spodoptera littoralis (Egyptian Cotton Leafworm)
Cotton leaf discs were placed on agar in a 24-well microtiter plate and sprayed with test solutions at an application rate of 200 ppm. After drying, the leaf discs were infested with 5 L1 larvae. The samples were checked for mortality, feeding behavior, and growth regulation 3 days after treatment (DAT).

[2] = system: Heliothis virescens (Tobacco Budworm); assay: Heliothis virescens egg test on artificial diet in 24-well microtiter plate; conditions: 96 h, 200 ppm (concentration in well 18 ppm), eggs 0-24 h old, 4 days, egg mortality, larval mortality, growth regulation
Procedure: (§1) Heliothis virescens (Tobacco Budworm):
Eggs (0-24 h old) were placed in 24-well microtiter plate on artificial diet and treated with test solutions at an application rate of 200 ppm (concentration in well 18 ppm) by pipetting. After an incubation period of 4 days, samples were checked for egg mortality, larval mortality and growth regulation.

[3] = system: Plutella xylostella (Diamond Back Moth); assay: Plutella xylostella L2 larvae test on artificial diet in 24-well microtiter plate; conditions: 144 h, 200 ppm (concentration in well 18 ppm), 6 days, larval mortality, growth regulation
Procedure: Plutella xylostella (Diamond Back Moth):
(§2) A 24-well microtiter plate (MTP) with artificial diet was treated with test solutions at an application rate of 200 ppm (concentration in well 18 ppm) by pipetting. After drying, the MTP's were infested with L2 larvae (7-12 per well). After an incubation period of 6 days, samples were checked for larval mortality and growth regulation.

[4] = system: Diabrotica balteata (Corn Root Worm); assay: Diabrotica balteata L2 larvae test on artificial diet in 24-well microtiter plate; conditions: 120 h, 200 ppm (concentration in well 18 ppm), 5 days, larval mortality, growth regulation
Procedure: Diabrotica balteata (Corn Root Worm):
as §2, with “with” for “with L2”, “(L2) (6-10” for “(7-12”, “5” for “6”, “mortality,” for “mortality”

[5] = system: Heliothis virescens (Tobacco Budworm); assay: Comparative Heliothis virescens egg test in petri dishes on artificial diet; conditions: 144 h, 6 days incubation, read-out: percentage of dead larvae; for pest or weed control at 0.8 ppm: concentration 0.8 ppm; for pest or weed control at 1.5 ppm: concentration 1.5 ppm; for pest or weed control at 3 ppm: concentration 3 ppm; for pest or weed control at 6 ppm: concentration 6 ppm
Procedure: This Example illustrates the pesticidal/insecticidal properties of compounds of formula (I) compared to Comparative Compound A and Comparative Compound B. Comparative Compound A and Comparative Compound B were disclosed in WO 2006/003494.
as §1
Fresh eggs (0-24 h old) on filterpaper were placed in petri dishes on top of a layer of artificial diet and treated with diluted test solutions by pipetting. After an incubation period of 6 days, samples were checked for larval mortality and growth regulation. The percentage of dead larvae was assessed.

Structure (SMILES)	pest or weed control at 200 ppm [1] [%]	pest or weed control at 200 ppm [2] [%]	pest or weed control at 200 ppm [3] [%]	pest or weed control at 200 ppm ([1]; in Gossypium hirsutum) [%]	pest or weed control at 200 ppm ([4]; in Zea mays) [%]	pest or weed control at 200 ppm [4] [%]	pest or weed control at 0.8 ppm [5] [%]	pest or weed control at 1.5 ppm [5] [%]	pest or weed control at 3 ppm [5] [%]	pest or weed control at 6 ppm [5] [%]
O=C(Nc1cc(C(F)(F)F)c(Cl)nc1C1CC[N+]([O-])(C/C=C/c2ccc(Br)cc2)CC1)c1ccnc(Cl)c1 (stereo not shown) [Compound R4]	≥ 80	≥ 80	≥ 80	–	–	–	–	–	–	–
O=C(Nc1ccc(C(F)(F)F)nc1C1CC[N+]([O-])(C/C=C/c2ccc(Cl)cc2)CC1)c1ccnc(Cl)c1 (stereo not shown) [Compound R1]	–	≥ 80	≥ 80	≥ 80	≥ 80	–	–	–	–	–
O=C(Nc1ccc(C(F)(F)F)nc1C1CC[N+]([O-])(C/C=C/c2ccc(C(F)(F)F)cc2)CC1)c1ccnc(Cl)c1 (stereo not shown) [Compound R3]	≥ 80	≥ 80	≥ 80	–	–	≥ 80	–	–	–	–
O=C(Nc1cc(Cl)c(C(F)(F)F)nc1C1CCN(C/C=C/c2ccc(Cl)cc2)CC1)c1ccnc(Cl)c1 [Compound H1, 2-chloro-N-{5-chloro-1′-[(E)-3-(4-chloro-phenyl)-allyl]-6-trifluoromethyl-1′,2′,3′,4′,5′,6′-hexahydro-[2,4′]bipyridinyl-3-yl}-isonicotinamide]	≥ 80	≥ 80	≥ 80	–	–	–	40	78	100	100
O=C(Nc1cc(Cl)cnc1C1CCN(C/C=C/c2ccc(Cl)cc2)CC1)c1ccnc(Cl)c1 [Comparative Compound B, reference compound]	–	–	–	–	–	–	0	50	93	100
O=C(Nc1c(C2CCN(C/C=C/c3ccc(Cl)cc3)CC2)nc(Cl)c(Cl)c1Cl)c1ccnc(Cl)c1 [Compound J1, 2-chloro-N-{4,5,6-trichloro-1′-[(E)-3-(4-chlorophenyl)-allyl]-1′,2′,3′,4′,5′,6′-hexahydro-[2,4′]bipyridinyl-3-yl}-isonicotinamide]	≥ 80	≥ 80	≥ 80	–	–	–	40	90	93	100
O=C(Nc1ccc(Cl)nc1C1CCN(C/C=C/c2ccc(Cl)cc2)CC1)c1ccnc(Cl)c1 [Comparative Compound A, reference compound]	–	–	–	–	–	–	30	50	70	93
O=C(Nc1cc(F)c(F)nc1C1CCN(C/C=C/c2ccc(Cl)cc2)CC1)c1ccnc(Cl)c1 [Compound N1, 2-chloro-N-{1′-[(E)-3-(4-chloro-phenyl)-allyl]-5,6-difluoro-1′,2′,3′,4′,5′,6′-hexahydro-[2,4′]bipyridinyl-3-yl}-isonicotinamide]	≥ 80	≥ 80	≥ 80	–	–	≥ 80	–	–	–	–
O=C(Nc1cc(C(F)(F)F)c(Cl)nc1C1CCN(C/C=C/c2ccc(Cl)cc2)CC1)c1ccnc(Cl)c1 [Compound F2, 2-chloro-N-{6-chloro-1′-[(E)-3-(4-chloro-phenyl)-allyl]-5-trifluoromethyl-1′,2′,3′,4′,5′,6′-hexahydro-[2,4′]bipyridinyl-3-yl}-isonicotinamide]	≥ 80	≥ 80	≥ 80	–	–	≥ 80	100	100	100	100
O=C(Nc1cc(Cl)c(Cl)nc1C1CC[N+]([O-])(C/C=C/c2ccc(Cl)cc2)CC1)c1ccnc(Cl)c1 (stereo not shown) [Compound R2]	≥ 80	≥ 80	≥ 80	–	–	≥ 80	–	–	–	–
O=C(Nc1cc(C(F)(F)F)c(F)nc1C1CCN(C/C=C/c2ccc(Cl)cc2)CC1)c1ccnc(Cl)c1 [Compound M1, 2-chloro-N-{1′-[(E)-3-(4-chloro-phenyl)-allyl]-6-fluoro-5-trifluoromethyl-1′,2′,3′,4′,5′,6′-hexahydro-[2,4′]bipyridinyl-3-yl}-isonicotinamide]	≥ 80	≥ 80	≥ 80	–	–	≥ 80	–	–	–	–
O=C(Nc1ccc(C(F)(F)F)nc1C1CCN(C/C=C/c2ccc(Cl)cc2)CC1)c1ccnc(Cl)c1 [Compound Q1, 2-chloro-N-{1′-[(E)-3-(4-chloro-phenyl)-allyl]-6-trifluoromethyl-1′,2′,3′,4′,5′,6′-hexahydro-[2,4′]bipyridinyl-3-yl}-isonicotinamide 2-ethyl-hexanoic acid salt]	–	≥ 80	≥ 80	–	–	≥ 80	–	–	–	–
O=C(Nc1c(F)cc(C(F)(F)F)nc1C1CCN(C/C=C/c2ccc(Cl)cc2)CC1)c1ccnc(Cl)c1 [Compound K1, 2-chloro-N-{1′-[(E)-3-(4-chloro-phenyl)-allyl]-4-fluoro-6-trifluoromethyl-1′,2′,3′,4′,5′,6′-hexahydro-[2,4′]bipyridinyl-3-yl}-isonicotinamide]	≥ 80	≥ 80	≥ 80	–	–	–	–	–	–	–
O=C(Nc1ccc(C(F)F)nc1C1CCN(C/C=C/c2ccc(Cl)cc2)CC1)c1ccnc(Cl)c1 [Compound O1, 2-chloro-N-{1′-[(E)-3-(4-chloro-phenyl)-allyl]-6-difluoromethyl-1′,2′,3′,4′,5′,6′-hexahydro-[2,4]bipyridinyl-3-yl}-isonicotinamide]	≥ 80	≥ 80	≥ 80	–	–	–	–	–	–	–
O=C(Nc1cc(Cl)c(Cl)nc1C1CCN(C/C=C/c2ccc(Cl)cc2)CC1)c1ccnc(Cl)c1 [Compound C1, 2-chloro-N-{5,6-dichloro-1′-[(E)-3-(4-chloro-phenyl)-allyl]-1′,2′,3′,4′,5′,6′-hexahydro-[2,4′]bipyridinyl-3-yl}-isonicotinamide]	≥ 80	–	–	–	–	≥ 80	100	100	100	100
O=C(Nc1cc(Cl)c(Cl)nc1C1CCN(C/C=C/c2ccc(Cl)cc2)CC1)c1ccnc(Cl)c1 [Compound Q20]	–	≥ 80	≥ 80	–	–	–	–	–	–	–
O=C(Nc1ccc(OC(F)F)nc1C1CCN(C/C=C/c2ccc(Cl)cc2)CC1)c1ccnc(Cl)c1 [Compound P1, 2-chloro-N-{1′-[(E)-3-(4-chloro-phenyl)-allyl]-6-difluoromethoxy-1′,2′,3′,4′,5′,6′-hexahydro-[2,4′]bipyridinyl-3-yl}-isonicotinamide]	≥ 80	≥ 80	≥ 80	–	–	≥ 80	–	–	–	–
O=C(Nc1ccc(C(F)(F)F)nc1C1CCN(C/C=C/c2ccc(Cl)cc2)CC1)c1ccnc(Cl)c1 [Compound A14, 2-chloro-N-{1′-[(E)-3-(4-chloro-phenyl)-allyl]-6-trifluoromethyl-1′,2′,3′,4′,5′,6′-hexahydro-[2,4′]bipyridinyl-3-yl}-isonicotinamide]	≥ 80	–	–	–	–	–	100	100	100	100
